A word on the AUC: it is concentration integrated over time. The Cmax is the peak of the concentration-time curve.

The test system of data set [1] is van-B type E. faecium (ID 553). The data set can be described thus: microbe, parasite or virus in culture. The class given is cell-based, Enterococcus faecium. The method, then: Sixty-six bacteriocins from Syngulon PARAGEN collection and NAI-107 from Naicons, SRL were screened using the resazurin microtiter assay (REMA)[30],[31]. The MIC for the antimicrobials listed in Table 1 were determined according to the clinical and laboratory standard institute (CLSI) guidelines and the European Committee on Antimicrobial Susceptibility Testing (EUCAST) broth microdilution reference method for MIC determination in E. faecium[32],[33].

The subject of data set [2] is vanB-type E. faecium (ID 553). The experiment in a line: Galleria mellonella E. faecium infection model, in vivo efficacy. The method, then:
G. mellonella larvae were treated with a range of doses of vanB-type E. faecium (ID 553) (1 × 10^6–1 × 10^9 CFU/mL) and observed for death alongside phosphate buffer saline (PBS) controls.
Injection of G. mellonella was carried out as described in Dijokaite et al.[21]. The last larval stage of G. mellonella (Terramania, Arnhem, NL) were used for the experiments. Only non-discoloured, healthy larvae were selected. The larvae were injected in the last left proleg using 0.3 mL U-100 insulin syringes (BD Micro-Fine).
Each test group consisted of two groups of 10 larvae per concentration of each bacteriocin or linezolid (10 µg/mL). 30 µl of PBS containing 2.7 × 10^7 CFU E. faecium was used to infect the G. mellonella larva. The larvae were treated with various concentrations of bacteriocins. One positive and two negative control groups were used. The positive control group received only the E. faecium inoculum in PBS. Out of the two negative control groups, one group underwent no manipulation, while the other group was injected with PBS only. Each antimicrobial agent was tested in a single experiment using larvae from the same batch and tested at the same time under identical conditions. Each group were incubated in sterile Petri dishes at 37 °C with a 5% (v/v) CO2 atmosphere for the length of the experiments.
Data were analyzed using GraphPad Prism v9. Survival plots were created using Kaplan–Meier survival curves. Statistical analysis was carried out using the Mantel-Cox test to compare survival curves between the PBS controls and each treatment arm. A P value of < 0.05 was considered statistically significant.

The subject of data set [3] is methicillin-resistant Staphylococcus aureus. Conditions: cited from earlier work. An excerpt:
(§1) There are a number of study limitations. […] This hypothesis was motivated by the growing problem of VRE infections. We acknowledge the limitations of this hypothesis. […] This would be of clinica ...

The subject of data set [4] is G. mellonella. Conditions: G. mellonella model; cited from earlier work.
Description: as §1

The conditions of data set [5]: cited from earlier work. An excerpt: This characteristic implies that NAI-107 would require parenteral administration in multiple doses per day for therapeutic use.
Data set [6] deals with vanA E. faecium 569. Conditions: administered intravenously to neutropenic mice; cited from earlier work. An excerpt:
(§2) Bacteriocins have gained considerable attention as potential alternatives to traditional antibiotics due to their narrow-spectrum activity and a lower likelihood of inducing resistance[11],[12]. Most leaderless bacteriocins such as Lacticin Q (53 aa), Lacticin Z (53 aa), and Garvicin KS have proven to have inhibitory effects against a range of genera such as Listeria, Staphylococcus and ...

Data set [7] deals with vanA E. faecalis A533. Conditions: administered intravenously to neutropenic mice; cited from earlier work.
Description: as §2

Where [8] appears, read: Enterococcus faecium, micro broth dilution method, van-B type E. faecium (ID 553), read-out: MIC.
The mark [9] stands for this setting: micro broth dilution method, van-B type E. faecium (ID 553).
The mark [10] stands for this setting: micro broth dilution method, van-B type E. faecium (ID 553), molar value from deduced molecular weight.
[11] abbreviates: mouse, single subcutaneous dosing of 5, 20 and 80 mg/kg.

Values after ≈ are worked out from the molar mass of the structure shown. Like-named read-outs stand apart in the source and are kept apart here. Ends that are not written are not given here.

Consider `CC1(C)S[C@@H]2[C@H](NC(=O)[C@H](N)c3ccccc3)C(=O)N2[C@H]1C(=O)O` [Ampicillin, reference compound], for which the MIC in data set [1] (setting [8]) was no less than 32 µg/mL.
On to `CC[C@H]1OC(=O)[C@H](C)[C@@H](O[C@H]2C[C@@](C)(OC)[C@@H](O)[C@H](C)O2)[C@H](C)[C@@H](O[C@@H]2O[C@H](C)C[C@H](N(C)C)[C@H]2O)[C@](C)(O)C[C@@H](C)C(=O)[C@H](C)[C@@H](O)[C@]1(C)O` [Erythromycin, reference compound], for which the MIC in data set [1] (setting [8]) is no less than 8 µg/mL.
Turning to `CNC(C)C1CCC(N)C(OC2C(N)CC(N)C(OC3OCC(C)(O)C(NC)C3O)C2O)O1` (stereo not drawn) [Gentamicin, reference compound], the MIC in data set [1] (setting [8]) is no less than 32 µg/mL.
With `CC(=O)NC[C@H]1CN(c2ccc(N3CCOCC3)c(F)c2)C(=O)O1` [Linezolid, reference compound], the MIC in data set [1] (setting [8]) stood at 2 µg/mL (≈ 5.93 µM).
Regarding `CN(C)[C@@H]1C(O)=C(C(N)=O)C(=O)[C@@]2(O)C(O)=C3C(=O)c4c(O)cccc4[C@@](C)(O)[C@H]3C[C@@H]12` [Tetracycline, reference compound], the MIC in data set [1] (setting [8]) was 0.25 µg/mL (≈ 0.563 µM).
For the compound `CN[C@H](CC(C)C)C(=O)N[C@H]1C(=O)N[C@@H](CC(N)=O)C(=O)N[C@H]2C(=O)N[C@H]3C(=O)N[C@H](C(=O)N[C@H](C(=O)O)c4cc(O)cc(O)c4-c4cc3ccc4O)[C@H](O)c3ccc(c(Cl)c3)Oc3cc2cc(c3O[C@@H]2O[C@H](CO)[C@@H](O)[C@H](O)[C@H]2O[C@H]2C[C@](C)(N)[C@H](O)[C@H](C)O2)Oc2ccc(cc2Cl)[C@H]1O` [Vancomycin], in data set [1] (Enterococcus faecium), the MIC was found to be 64 µg/mL (≈ 44.2 µM).
Take “MSWLNFLKYIAKYGKKAVSAAWKYKGKVLEWLNVGPTLEWVWQKLKKIAGL [Aureocin A53]”: the MIC was found to be 1.56 µg/mL in data set [1] (setting [9]) and 0.2609 µM/L in data set [1] (setting [10]).
Consider Microbisporicin, for which, in data set [1] (setting [9]), the MIC came to 4 µg/mL. Moreover, in data set [1] (setting [10]), the MIC is 0.00178 µM/L. Also, the “mortality compared with the linezolid (10 µg/mL) treated group” value in data set [2] (16 µg/mL group, 120 h) is listed as “significantly lower”. The “dose groups with the lowest mortality” value in data set [2] (doses tested 2, 4, 8 and 16 µg/mL, 120 h) is 8 µg/mL and 16 µg/mL. The “in vivo efficacy (survival of infected larvae)” value in data set [2] (larvae infected with 2.7 × 10^7 CFU E. faecium in 30 µl PBS, 20 larvae per group, 2-16 µg/mL, 120 h at 37 °C) is listed as “effective in vivo at all doses tested”. In data set [3], the “efficacy against methicillin-resistant Staphylococcus aureus in rat model” value is “efficacious” and the “toxicity in rat model” value is “non-toxic”. Further, the “concentration up to which no toxicity was exhibited” value in data set [4] was no less than 64000 ng/mL. Besides, in data set [5] (after intramuscular, intravenous and subcutaneous administration), the bioavailability result is given as “good bioavailability”. For the same compound, in data set [5] (setting [11]), the AUC is 27000 to 276000 ng·h/mL, the Cmax was 4000 to 22000 ng/mL and the elimination half-lives was 4.2 to 8.2 h. Further, the oral absorption entry in data set [5] (oral) is recorded as “not absorbed orally”. Moreover, in data set [6], the in vivo efficacy entry is on record as “effective”. For the same compound, in data set [7], the in vivo efficacy result is “effective”.
As to Teicoplanin [reference compound], the MIC in data set [1] (setting [9]) came out at 0.5 µg/mL.

Source of the values: paper PMC10899196, “Protective effect of microbisporicin (NAI-107) against vancomycin resistant Enterococcus faecium infection in a Galleria mellonella model” (Scientific Reports, 2024).
